This is an account of results in paper PMC7662849, “Mimicking the Nucleosomal Context in Peptide-Based Binders of a H3K36me Reader Increases Binding Affinity While Altering the Binding Mode” (Molecules, 2020).

Where two headings read alike, the source gives them in different places. Positions of bridges follow the written chain, without caps; N, C: chain ends. Non-standard residues stand in square brackets, D forms with d. Residues, ends and D or L forms follow the SMILES beside them. Chains are numbered I, II in the order given. Lys(Me3) = C[N+](C)(C)CCCC[C@H](N)C(=O)O

The test deals with T1, PSIP1^PWWP (AA 2-100, Uniprot-ID: O75475) (Homo sapiens, UniProt O75475).
T1 construct: PSIP1^PWWP (AA 2-100, Uniprot-ID: O75475); GST (cleaved yes); made in house; host or cells: E. coli BL21 Rosetta2 (DE3)
T1 sequence (O75475 2-100): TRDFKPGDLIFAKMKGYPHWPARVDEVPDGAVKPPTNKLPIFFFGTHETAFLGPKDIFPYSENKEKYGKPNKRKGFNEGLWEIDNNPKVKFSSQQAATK
In words: NMR titration (15N-HSQC chemical shift perturbation) of peptides binding to PSIP1 PWWP domain.

Method: Cells were grown to an OD of 0.6 and induced with 500 μM IPTG. The protein was expressed for 3 h at 37 °C. […] The GST-fusion protein was eluted using elution buffer (50 mM KPi pH 7.0, 100 mM KCl, 50 mM reduced glutathione, 1 mM DTT, complete EDTA-free protease inhibitor (Roche)). Thrombin cleavage of the GST-tag was carried out for 3 h at 37 °C after adding 10U of thrombin to the combined eluted fractions, then quenched by addition of 1 mM PMSF and incubation for 15 min at 37 °C. […] The PWWP-containing fractions were then combined and dialyzed to NMR buffer (20 mM NaPi (pH = 7.0), 150 mM NaCl, cOmplete protease inhibitor, 10% (v/v) D2O).
All peptides were dissolved in NMR buffer (20 mM NaPi (pH = 7.0), 150 mM NaCl, cOmplete protease inhibitor, 10% (v/v) D2O). The pH for all peptide stocks was adjusted to 7.0 using NH4OH. Determination of peptide stock concentrations was done using 1D NMR spectra with TSP as reference compound. […] The Val signal was verified by 2D NMR spectra (TOCSY, ^13C-HSQC).
All NMR experiments were carried out at 298 K on a Bruker Avance spectrometer operating at 750 MHz ^1H Larmor frequency with room-temperature probe. Processing was done using the Bruker’s TopSpin. Spectra were analyzed using Sparky (Goddard and Kneller, UCSF).
Titration data were fitted using MatLAB scripts (available upon request) using the fast-exchange assumption [50]. […] Profiles were selected either form the ^1H or ^15N dimension. A 1:1 binding model was assumed. […] The degrees of freedom are equal to total number of points NM compensated for the number of global variables (KD), the M offset-variables and M chemical shift differences. To obtain the 95% confidence limits in the KD, a one-dimensional grid search was performed either systematically increasing or decreasing the KD until the reduced χ^2 exceeded the 95% critical value according to an F-test.
Analysis of the bound-state chemical shifts was based on selected residues K14 (^1H/^15N), M15 (^1H), W21 (^1H), F44 (^15N) T47 (^1H/^15N), H48 (^1H), T50 (^1H/^15N) and A51 (^1H/^15N) due to their significant shift in all experiments.

On to `CC(=O)N[C@@H](CO)C(=O)N[C@@H](C)C(=O)N1CCC[C@H]1C(=O)N[C@@H](C)C(=O)N[C@H](C(=O)NCC(=O)NCC(=O)N[C@H](C(=O)N[C@@H](CCCC[N+](C)(C)C)C(=O)NCC(=O)NCC(=O)NCCCC[C@H](NC(=O)CNC(=O)CNC(=O)[C@H](CCC(=O)O)NC(=O)[C@H](CCC(=O)O)NC(=O)[C@H](CCC(=O)O)NC(=O)[C@H](CCC(=O)O)NC(=O)[C@H](CCC(=O)O)NC(C)=O)C(=O)NCC(=O)NCC(=O)N[C@@H](CCC(=O)O)C(=O)N[C@@H](CCC(=O)O)C(=O)N[C@@H](CCC(=O)O)C(=O)N[C@@H](CCC(=O)O)C(=O)N[C@@H](CCC(=O)O)C(N)=O)C(C)C)[C@@H](C)O` [H3^(E5)2] (I: Ac-EEEEEGGKGGEEEEE-NH2 / II: Ac-SAPATGGV[Lys(Me3)]GG; amide I:8-II:C; N-terminus and C-terminus assumed), for which the Kd runs as follows: (same titration and fit, limits from grid search, F-test, read-out: KD, 95% probability limits) 190 to 700 µM; (~300 µM 15N-PSIP1^PWWP, 20 mM NaPi pH 7.0, 150 mM NaCl, 298 K, 1:1 binding model, read-out: KD (global fit of NMR-derived binding curves)) 360 µM.
Regarding `CC(=O)N[C@@H](CO)C(=O)N[C@@H](C)C(=O)N1CCC[C@H]1C(=O)N[C@@H](C)C(=O)N[C@H](C(=O)NCC(=O)NCC(=O)N[C@H](C(=O)N[C@@H](CCCC[N+](C)(C)C)C(=O)N[C@@H](CCCCN)C(=O)N1CCC[C@H]1C(=O)N[C@@H](CCC(=O)O)C(=O)N[C@@H](CCC(=O)O)C(=O)N[C@@H](CCC(=O)O)C(=O)N[C@@H](CCC(=O)O)C(=O)N[C@@H](CCC(=O)O)C(=O)N[C@@H](CCC(=O)O)C(N)=O)C(C)C)[C@@H](C)O` [H3^PE6] (Ac-SAPATGGV[Lys(Me3)]KPEEEEEE-NH2), the Kd (~300 µM 15N-PSIP1^PWWP, 20 mM NaPi pH 7.0, 150 mM NaCl, 10% D2O, 298 K, 1:1 binding model, fast exchange, global fit of all residues with significant CSP, read-out: KD, best-fit value (global fit of NMR titration data)) was found to be 1740 µM.
